Tests used:
[1] = molecular target: nicotinic α7 receptor (Homo sapiens, UniProt P36544); assay: Electrophysiology, co-application with ACh (hump currents, Dynaflow chip); type: cell-based
Description: Hump currents are defined as the tail current observed during co-application with endogenous ACh following agonist removal.
The channels were prepared as follows: Control solution (channel #2), application ligand itself (channel #3), application of acetylcholine itself (channel #1), and application of mixture of acetylcholine and ligand (channel #4).
Curve 1, FIG. 7B: The bar above the curve indicates time of ACh application. The curve represents current induced by a one second application of 70 μM ACh. The curve illustrates the result from moving the cell from channel #2 to channel #1 for a 1 second application of ACh and back to channel 2 (washout).
Curve 4, FIG. 7B: Curve 4 represents a repetition of Curve 1 at the end of measurements after application of the ligand and ACh/ligand mixture (recovery).
Curve 2, FIG. 7B: The down/up arrows indicates time of application.

[2] = tested on: ovalbumin-sensitized mice; assay: White blood cell and differential cell counts in BALF; type: in vivo, mouse
Description: (§1) Using the method of Hamelmann et al, (2S,3R)—N-2-((3-pyridinyl)methyl)-1-azabicyclo[2.2.2]oct-3-yl)-3,5-difluorobenzamide was evaluated for possible inhibition of airway hyper-responsiveness in mice. Briefly, ovalbumin (OVA)-sensitized animals, 12 animals per group, were challenged by nasal inhalation with aerosolized 5% OVA for 25 min on days 21, 23, and 25. The mice were treated with vehicle or (2S,3R)—N-2-((3-pyridinyl)methyl)-1-azabicyclo[2.2.2]oct-3-yl)-3,5-difluorobenzamide subcutaneously (s.c.) twice daily from day 21 to day 26 or once daily intratracheally (i.t.), preceding ovalbumin aerosol challenge by 30 min on days 21, 23 and 25 as well as methacholine challenge or bronchoalveolar lavage fluids (BALF) harvest on day 26. Dexamethasone, the reference standard, was administered at 3 mg/kg orally (p.o.) once daily 60 min before OVA challenge on day 21, 23 and 25 and 60 min before methacholine provocation or BALF harvest on day 26. Noninvasive measurements of airway responsiveness were performed by using whole body plethysmography, in which increases in enhanced pause (Penh) serve as an index of airway obstruction. Responses to inhaled methacholine were measured and calculated as percentage of respective baseline values. Unpaired Student's t-test was used for comparison between the vehicle control and the sham group; one-way ANOVA and Dunnett's post-hoc analyses were applied for comparison between the vehicle control and treated groups. Statistical significance is considered at P<0.05.

[3] = molecular target: α7 nicotinic ACh receptors (Homo sapiens, UniProt P36544); assay: Electrophysiology, dose-response at α7 nicotinic ACh receptors; type: cell-based
Sequence of α7 nicotinic ACh receptors (P36544 23-502): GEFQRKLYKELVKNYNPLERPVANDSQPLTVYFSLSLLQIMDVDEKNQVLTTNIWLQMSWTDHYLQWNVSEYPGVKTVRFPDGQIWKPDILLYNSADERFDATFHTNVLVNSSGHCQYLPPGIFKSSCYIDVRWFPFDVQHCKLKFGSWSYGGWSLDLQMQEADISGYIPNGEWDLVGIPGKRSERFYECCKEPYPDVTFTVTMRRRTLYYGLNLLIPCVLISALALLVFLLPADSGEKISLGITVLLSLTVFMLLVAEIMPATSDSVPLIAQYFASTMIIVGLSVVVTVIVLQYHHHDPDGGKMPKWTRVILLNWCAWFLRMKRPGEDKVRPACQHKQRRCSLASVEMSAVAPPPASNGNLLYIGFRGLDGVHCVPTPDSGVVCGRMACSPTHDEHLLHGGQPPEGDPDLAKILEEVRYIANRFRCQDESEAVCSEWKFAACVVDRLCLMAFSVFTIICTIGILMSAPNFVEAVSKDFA

[4] = Aqueous solubility (salt screen); details: free base form
[5] = tested on: STZ rat model of diabetic neuropathy; assay: Streptozotocin (STZ)-induced diabetic neuropathy, Von Frey allodynia; type: in vivo; details: for Tactile allodynia (Von Frey): 30 min after administration
Description: Diabetes was induced by a 0.5 ml injection of streptozotocin (60 mg/kg) dissolved in citrate buffer (pH=6) into the tail vein of each rat. The development of diabetes was confirmed by measuring the blood glucose levels (BGL) of all animals on study day 3 (BGL>300 mg/dL). […] These animals were tested again for their BGL at study day 23.
(2S,3R)—N-2-((3-pyridinyl)methyl)-1-azabicyclo[2.2.2]oct-3-yl)-3,5-difluorobenzamide (0.1, 1 or 10 mg/kg p.o.) was administered as a solution of the hydrochloride salt in water once daily starting on study day 14 or study day 16 and continuing through study day 21 or 23, respectively. The control article gabapentin (in 0.9% saline, 150 mg/kg i.p.) was only administered on allodynia test days. Test item, vehicle or control article administration was based on evaluation of allodynia on study day 14. If allodynia was not present on study day 14, the animal was evaluated again at study day 16. Pain response was measured either on study days 14 and 21 or 16 and 23, 30 minutes after Test Item administration.
For the allodynia assessments, Von Frey filaments were used according to the methods of Chaplan and colleagues (1994). Briefly, the rats were placed in an enclosure and positioned on a metal mesh surface, but allowed to move freely. The rats' cabins were covered with red cellophane to diminish environmental distributions. The test began after cessation of exploratory behavior.
When the tip of a Von Frey fiber of given length and diameter was pressed against the skin at right angles, the force of application increases as long as the researcher continued to advance the probe until the fiber bent. After the fiber bent, the probe was advanced, causing the fiber to bend more, but without additional force being applied. The animal would indicate sensation by pulling back its paw. In the absence of a paw withdrawal response to the initially selected filament, a stronger stimulus was presented: in the event of paw withdrawal, the next weaker stimulus was chosen. In this fashion, the resulting pattern of positive and negative responses was used to determine the paw withdrawal threshold.
The set of Von Frey monofilaments provide an approximate logarithmic scale of actual force and a linear scale of perceived intensity. Below is a table showing the force (g) and its corresponding size of monofilaments.
All normally distributed data are presented as means±SEM, as well as the animals' individual values followed by a student T-test (Software: Microsoft® Excel). A p value<0.05 is considered to represent a significant difference. Due to the non-normal distribution of the allodynia data, descriptions of those data are provided as both mean (+SEM) and median values in order to represent their imprecise nature and skewed distribution.

[6] = tested on: ovalbumin-sensitized mice; assay: Airway hyperresponsiveness, Penh response to methacholine; type: in vivo, mouse; details: for Methacholine-induced increase in Penh values: FIG. 21
Description: as §1

[7] = tested on: Sprague-Dawley rats; assay: Complete Freund's adjuvant (CFA)-induced thermal hyperalgesia; type: in vivo, rat; details: 0.1, 1 or 10 mg/kg s.c., 1 hour post-dose, vs vehicle
From the text: Briefly, adult male Sprague-Dawley rats (BioLasco, Taiwan) weighing 180±20 g on receipt were randomly assigned to treatment groups of n=8 per group. […] A subject was placed within a plastic box atop an elevated glass floor and a light beam located under the glass floor was directed at the plantar surface of the right hind paw. The time required for the animal to withdraw the paw from the thermal stimulus was automatically recorded. The intensity of the light was adjusted to evoke an average group baseline latency from 12-14 seconds (pre-CFA) and a cut-off latency of 20 seconds was imposed. The latency for paw withdrawal was obtained for each rat and defined as the heat pain threshold.
Test substance, morphine and vehicle were administered by subcutaneous (s.c.) injection at time 0. The post-treatment level of thermal hyperalgesia was then measured at 60 minutes post-treatment. One-way ANOVA followed by Dunnett's test was applied for comparison between test substance treated groups and vehicle control group. Activity was considered significant at the P<0.05 level.

Sequence of nicotinic α7 receptor (P36544 23-502): as above

## O=C(N[C@@H]1C2CCN(CC2)[C@H]1Cc1cccnc1)c1cc(F)cc(F)c1 [Compound A]
[1]; 200 nM compound with ACh, Curve 3 FIG. 7B
  Hump current on application of compound following ACh: profound “hump” current
[1]; 200 nM, 5 second application, Curve 2 FIG. 7B
  Current produced by compound alone: do not produce robust macro currents
[1]; 100-500 nM range, n=4, FIG. 7C
  Concentration at EMAX of hump current: approximately 500 nM
[1]; FIG. 6
  Effect on ACh-induced current on co-application with ACh: enhanced ACh-induced current
[2]; 10 mg/kg SC
  Monocytes in BALF: reduced
[2]; 0.1 and 1 mg/kg SC
  Total WBC and eosinophils in BALF: significantly reduced
[2]; 0.1 and 1 mg/kg SC and 10 mg/kg IT
  Lymphocytes in BALF: reduced
[2]; multiple administrations, lacks a consistent dose-response relationship
  Eosinophils and white blood cells in BALF (summary): significant reduction in eosinophils and white blood cells in BALF
[3]
  Functional mode at the α7 NNR: partial agonist
[4]
  Water solubility: limited
[5]; 1 mg/kg and 10 mg/kg, compared to vehicle, FIG. 14
  Diabetic neuropathy pain, Von Frey assessment: effective in reducing diabetic neuropathy pain
[5]; 1 mg/kg p.o., study days 14/16, vs pretreatment p<0.01, vs vehicle p<0.05
  Tactile allodynia (Von Frey): inhibited allodynia
[5]; 1 mg/kg p.o., study days 21/23, vs pretreatment p=0.012
  Tactile allodynia (Von Frey): inhibited allodynia
[5]; 10 mg/kg p.o., study days 14/16, vs pretreatment p=0.012
  Tactile allodynia (Von Frey): inhibited allodynia
[5]; 10 mg/kg p.o., study days 21/23, vs vehicle p<0.05
  Tactile allodynia (Von Frey): inhibited allodynia
[6]; 10 mg/kg IT qd
  Methacholine-induced increase in Penh values: significant inhibition
[6]; 0.1, 1, and 10 mg/kg bid s.c.
  Methacholine-induced increase in Penh values: significant inhibition
[6]; 0.1, 1 and 10 mg/kg bid s.c. and 10 mg/kg i.t.
  Protection against airway hyper-responsiveness (summary): significant protection against airway hyper-responsiveness
[7]
  Analgesic effect on CFA-induced thermal hyperalgesia: not associated with any significant analgesic effect
